In patent US6147107A, “Specific inhibition of the P42/44 mitogen activated protein (map) kinase cascade sensitizes tumor cells” (priority 1998, dated 2000):

Key:
[1] = test system: p42/44 MAP kinase; experiment: MAP kinase activity in HL-60 cells (immunoprecipitation, MBP substrate); format: cell-based, human; settings: ara-C
Experimental: FIG. 8. […] HL-60 cells were exposed to ara-C (10 μM) in the absence or presence of aminomethoxyflavone (PD98059; 2.5 μM) for 3 hours. MAP kinase activity (p42-ERK1/p44-ERK2) was determined by in vitro assay. In each case, values reflect the mean ±SE of duplicate determinations, and are expressed as a percentage of basal activity present in untreated controls.
Determination of MAPK Activity: Pelleted cells were rinsed in PBS, repelleted, and flash-frozen. Cell pellets were lysed in 25 mM Hepes, pH 7.4 containing 5 mM EGTA, 5 mM EDTA, supplemented with protease inhibitors (5 mM benzamidine, 1 mM phenylmethylsulfonylfluoride, 1 mg/ml soybean trypsin inhibitor, 40 μg/ml aprotinin, 1 μM microcystin LR) phosphatase inhibitors (0.5 mM trisodium orthovanadate, 0.5 mM tetrasodium pyrophosphate), and containing 0.056% sodium deoxycholate w/v, 1% Triton X-100 v/v, and 0.1% 2-mercaptoethanol v/v. Lysates were clarified by centrifugation at 5,000× g at 4° C. for 5 min. MAPK activity was assayed using MBP as a substrate following immunoprecipitation of p42/44 MAP kinase with protein A/agarose-conjugated antibody/antisera. Preimmune controls were also run to ensure selectivity of substrate phosphorylation. Reaction mixtures consisted of immunoprecipitated enzyme, substrate, and [γ-^32 P] ATP ([…]) in 25 mM Hepes, pH 7.4 containing 15 mM MgCl2, […], 0.01% (v/v) 2-mercaptoethanol, 1 μM […]. Reactions were initiated by the addition of substrate. MAPK reactions were terminated by transfer to p81 filter paper; filters were rinsed repeatedly in 185 mM orhtophosphoric acid, and then dehydrated in acetone. Total radioactivity in filters was determined by liquid scintillometry.
HL-60 cells were exposed to ara-C in the absence or presence of PD98059. Following this treatment, the cells were eveluated for MAP kinase activity, DNA strand breakage, clonogenicity potential and extent of apoptosis.

[2] = test system: HL-60 cells; experiment: Clonogenicity of HL-60 cells; format: cell-based, human; settings: either agent alone
Experimental: FIGS. 9a and 9b. […] HL-60 cells were exposed to ara-C (10 μM) in the absence or presence of aminomethoxyflavone (PD98059; 2.5 μM) for 6 hours. Apoptotic DNA damage and cell death were assessed as described in Methods. […] FIG. 9b.
Determination of Clonogenicity: Pelleted cells were rinsed extensively and prepared for soft-agar cloning. Cells were resuspended in cold PBS and seeded in 35-mm culture plates at a fixed density (400 cell/ml/well) in complete RPMI-1640 medium containing 20% fetal calf serum, 10% 5637-CM, and 0.3% Bacto agar. Cultures were mainatined for 10 to 12 days before formation of colonies (defined as groups of ≥50 cells) was scored.

[3] = test system: HL-60 cells; experiment: Taxol-mediated apoptosis of HL-60 cells; settings: Homo sapiens, HL-60, 6 h, read-out: cell death, taxol alone
[4] = test system: MEK1 and MEK2; experiment: Inhibition of Raf-mediated phosphorylation/activation of MEK1/2; format: biochemical; settings: for inhibition of MEK1 and MEK2: general statement; for inhibition of Raf phosphorylation of MEK1 and MEK2: stated as demonstrated by the applicant
[5] = test system: HepG2 hepatoma cells; experiment: TUNEL assay, HepG2 hepatoma cells after radiation; format: cell-based; settings: SL327 (2 μM) + 2×2 Gy, 12 hours
Experimental: (§1) Experimental cells were exposed to radiation (2×2 Gy), or treated with the p42/44 MAP kinase inhibitory drug SL327 (2 μM), or treated with SL327 and exposed to radiation. Twelve hours after the final irradiation, cells were assessed by the TUNEL assay.
(§2) This is highly relevant because the neoplastic cells which are targeted for destruction by radiation therapy are rapidly proliferating, in contrast to most normal slowly growing somatic cells. Primary hepatocytes (representing slow growing "normal" cells) and HepG2 hepatoma cells derived from a cancerous cell line were cultured under identical conditions. Control cells of both types were left untreated. Matched samples of both cell types were treated with the p42/44 MAP kinase cascade inhibitory drug SL327, or exposed to radiation (2×2 Gy), or treated with SL327 and exposed to radiation. Twelve hours after the final irradiation, cells were processed and the number of dead (apoptoic) cells was determined by the TUNEL assay. […] Furthermore, the effect is specific for rapidly growing cells.

[6] = test system: cancer cells; experiment: Radiosensitization of cancer cells; format: cell-based; settings: general statement
[7] = test system: MEK1 and MEK2; settings: general statement on known inhibitors; cited from earlier work
[8] = test system: A431 cells; experiment: TUNEL assay, apoptosis of A431 cells after radiation; format: cell-based, human; settings: 2 μM inhibitor + 2 Gy, 24 hours
Experimental: The ability of the cells to survive was assessed using TUNEL assays 24 hours after irradiation and the results are depicted in FIG. 4.

[9] = test system: primary hepatocytes; experiment: TUNEL assay, primary hepatocytes after radiation; format: cell-based; settings: SL327 (2 μM) + 2×2 Gy, 12 hours
Experimental: as §1, §2

[10] = test system: MDA-MB-231 mammary cancer cells
Experimental: To further extend these investigations, the efficacy of U0126 was tested in the mammary cancer cell line MDA-MB-23 1. As described in the previous experiment, cells were exposed to 2 μM U0126 alone, radiation (3×2 Gy) alone, or to the combination of U0126 plus radiation. Control cells were treated with vehicle alone.

[11] = test system: A431 cells

Row | SMILES | inhibition of MEK1 and MEK2 [4] | inhibition of Raf phosphorylation of MEK1 and MEK2 [4] | radiosensitization of cancer cells [6] | mode of action at MEK1/2 [7] | percentage of apoptotic cells (TUNEL) [8] | also measured
1 | Cl.Nc1ccn([C@@H]2O[C@H](CO)[C@@H](O)[C@@H]2O)c(=O)n1 [ara-C, 1-[β-D-arabinofuranosyl] cytosine hydrochloride] |  |  |  |  |  | MAP kinase activity, effect of ara-C [1]: stimulation of MAP kinase; clonogenic potential, single agent [2]: neither alone had this effect
2 | CC(=O)O[C@H]1C(=O)[C@@]2(C)[C@H]([C@H](OC(=O)c3ccccc3)[C@]3(O)C[C@H](OC(=O)[C@H](O)[C@@H](NC(=O)c4ccccc4)c4ccccc4)C(C)=C1C3(C)C)[C@]1(OC(C)=O)CO[C@@H]1C[C@@H]2O [taxol] |  |  |  |  |  | cytotoxicity at 0.5 µM [3]: ~27%
3 | N#C/C(=C(/N)Sc1ccc(N)cc1)c1ccccc1C(F)(F)F [SL327] | all inhibit MEK1 and MEK2 | inhibiting the ability of Raf protein kinases to phosphorylate MEK1 and MEK2 | all cause radiosensitization of cancer cells | bind to MEK1/2 and sterically prevent Raf from binding | dramatic increase in the percentage of apoptotic cells | increase in cell killing compared to radiation alone [5]: approximately 2.5 fold; response to combined drug/radiation treatment (TUNEL) [5]: effectively killed; response to combined drug/radiation therapy (TUNEL) [9]: fairly resistant
4 | O=C(NOCC1CC1)c1ccc(F)c(F)c1Nc1ccc(I)cc1Cl [PD184352] |  |  |  | bind to MEK1/2 and sterically prevent Raf from binding |  | 
5 | N#CC(=C(N)Sc1ccccc1N)C(C#N)=C(N)Sc1ccccc1N [U0126, 1,4-diamino-2,3-dicyano-1,4-bis[2-aminophenylthio]butadiene] | all inhibit MEK1 and MEK2 | inhibiting the ability of Raf protein kinases to phosphorylate MEK1 and MEK2 | all cause radiosensitization of cancer cells | bind to MEK1/2 and sterically prevent Raf from binding | dramatic increase in the percentage of apoptotic cells | decreasing cellular proliferative potential versus either treatment alone (MTT) ([10]; 2 μM U0126 + 3×2 Gy): far more effective; proliferative rate (MTT) ([10]; 2 μM U0126 alone or with 3×2 Gy, 3-4 days): Decreased proliferative rate; abolishing cellular proliferation versus U0126 alone or irradiation alone (MTT) ([11]; 2 μM U0126 + 3×2 Gy): markedly more effective; proliferative rate (MTT) ([11]; 2 μM U0126 alone or with 3×2 Gy, 4-8 days): Decreased proliferative rate
